Assay results from patent US8332028B2, “Protected lithium electrodes for electro-transport drug delivery” (PolyPlus Battery Company, priority 2006, dated 2012).

Assay: in vitro Li delivery through pig skin in a flow-through Li-AgCl cell (protected Li metal foil donor electrode)
Type: in vitro ADME
Experimental: The glass receptor compartment was similar to one described by Phipps et al. (1988) Solid State Ionics 28-30: 1778-1783, for ionophoretic drug delivery experiments. The receptor compartment was filled with RPMI-1640 Medium (Sigma Aldrich). The antibiotic gentamicin sulphate was added to the receptor compartment fluid to inhibit bacterial growth.
The prepared skin was stored in RPMI-1640 medium overnight before the start of the experiment. The skin was placed on the receptor chamber and kept in place and stretched out with an O-ring around the neck of the chamber. The visceral surface of the skin was in contact with the receptor fluid.
A square 1 cm×1 cm silver chloride cathode with a capacity of approximately 40 mAh was introduced into the receptor chamber through a port. A multi-channel peristaltic pump was used to create a flow of the RPMI-1640 medium through receptor compartments of several cells. In our experiments we used a flow rate of 2.1 mL/hr. Periodic sampling of the receptor compartment fluid was performed automatically. The temperature inside the water-jacketed receptor compartment was kept at 37° C. The fluid inside the receptor compartment was stirred with a magnetic stir bar.
The donor chamber was positioned over the skin. It contained Li metal foil and a protective architecture enabling the use of Li in an aqueous environment. The protective architecture comprised a 150 micron thick barrier layer composed of a glass ceramic solid electrolyte plate (AG-01 material from OHARA Corporation with ionic conductivity of ˜10^−4 S/cm) and an anolyte interlayer located between the Li surface and the glass ceramic plate barrier layer. […]
The donor-acceptor chamber assembly was kept in place using a clamp. […] Li content in the fluid samples taken from receptor compartment was analyzed by ICP-MS.
The rate of Li delivery into the receptor compartment was calculated as a product of Li concentration and the flow rate of the receptor fluid.

## [Li] [Li, lithium]
0.2 mA/cm^2 vs 0.1 mA/cm^2, FIG. 9
  Li content in receptor fluid samples, comparison of current densities: significantly larger for the rate of 0.2 mA/cm^2 than for 0.1 mA/cm^2
Before current passing
  initial Li content of the receptor solution: ≤ 6 µg/L
Constant current 0.1 mA/cm^2 (27 hrs) and 0.2 mA/cm^2 (24 hrs), 37° C., RPMI-1640 receptor fluid, ICP-MS, FIG. 9
  Li content in receptor fluid samples over time: gradually increased over time
